From patent US20240383923A1, “HETEROARYL DERIVATIVE AND USE THEREOF” (VORONOI INC., priority 2022, published 2024) come the findings set out here.

SMILES strings stand for the structures.

The subject of this assay is BT-474 cancer cells. The assay is described as follows: Inhibition of BT-474 cell proliferation (CellTiter-Glo). In kind it is cell-based. Particulars: Homo sapiens, BT-474 cells, 120 hours. How it is done:
BT-474 cancer cells were cultured by using RPMI-1640 medium containing 20% FBS. The BT-474 cancer cells were seeded to a white clear bottom 96 well plate (Corning) at 5,000 cells per well 48 hours before the BT-474 cancer cells were treated with Example Compounds. Example Compounds were diluted in dimethylsulfoxide (3-fold diluted, total 11 concentrations) and 1 μL each was injected so that the final concentration was 0.2 nM to 10 μM. For the measurement of living cells, the cells were stored at room temperature for 10 minutes using the CellTiter-Glo cell viability reagent (Promega) after a predetermined time (120 hours) after the treatment of Example Compounds, and then the luminescence intensity was measured using a reader (SynergyNeo, Biotek). Each test was repeated three times.
The result value was calculated as a cell growth rate (%) compared to a control group. Graphs were plotted and GI50 values were calculated using the GraphPad Prism version 8.0 program, and the results are shown in Table 18 below.
(Cellular ATP, detected with luciferase, serves as a proxy for viable cell number.)
Turning to `COc1cc(Oc2ccn3ncnc3c2)c(C)cc1Nc1ncnc2cc(OC(F)F)c(NC(=O)/C(F)=C\[C@H]3CCCN3C)cc12` [Example 99, (R,E)-N-(4-((4-([1,2,4]triazolo[1,5-a]pyridin-7-yloxy)-2-methoxy-5-methylphenyl)amino)-7-(difluoromethoxy)quinazolin-6-yl)-2-fluoro-3-(1-methylpyrrolidin-2-yl)acrylamide], the GI50 (as a rule, the concentration at which growth is held to half of that of the control) was at most 50 nM.
Take `COc1cc(Oc2ccn3ncnc3c2)c(C)cc1Nc1ncnc2cc(OCCN3CCOCC3)c(NC(=O)/C(F)=C/[C@H]3CCCN3C)cc12` [Example 101, (R,Z)—N-(4-((4-([1,2,4]triazolo[1,5-a]pyridin-7-yloxy)-2-methoxy-5-methylphenyl)amino)-7-(2-morpholinoethoxy)quinazolin-6-yl)-2-fluoro-3-(1-methylpyrrolidin-2-yl)acrylamide]: the GI50 was at most 50 nM.
For `COc1cc(Oc2ccn3ncnc3c2)c(C)cc1Nc1ncnc2cc(F)c(NC(=O)/C(F)=C\[C@H]3CCCN3C)cc12` [Example 102, (R,E)-N-(4-((4-([1,2,4]triazolo[1,5-a]pyridin-7-yloxy)-2-methoxy-5-methylphenyl)amino)-7-fluoroquinazolin-6-yl)-2-fluoro-3-(1-methylpyrrolidin-2-yl)acrylamide], the GI50 is at most 50 nM.
Under `COc1cc(Oc2ccn3ncnc3c2)c(C)cc1Nc1ncnc2cc(F)c(NC(=O)/C(F)=C/[C@H]3CCCN3C)cc12` [Example 103, (R,Z)—N-(4-((4-([1,2,4]triazolo[1,5-a]pyridin-7-yloxy)-2-methoxy-5-methylphenyl)amino)-7-fluoroquinazolin-6-yl)-2-fluoro-3-(1-methylpyrrolidin-2-yl)acrylamide] stands at most 50 nM.
Take `COc1cc2ncnc(Nc3cc(C)c(Oc4ccn5ncnc5c4)cc3OC(F)(F)F)c2cc1NC(=O)/C(F)=C\[C@H]1CCCN1C` [Example 105, (R,E)-N-(4-((4-([1,2,4]triazolo[1,5-a]pyridin-7-yloxy)-5-methyl-2-(trifluoromethoxy)phenyl)amino)-7-methoxyquinazolin-6-yl)-2-fluoro-3-(1-methylpyrrolidin-2-yl)acrylamide]: the GI50 was above 500 nM.
`COc1cc2ncnc(Nc3cc(C)c(Oc4ccn5ncnc5c4)cc3OC3CC3)c2cc1NC(=O)/C(F)=C\[C@H]1CCCN1C` [Example 106, (R,E)-N-(4-((4-([1,2,4]triazolo[1,5-a]pyridin-7-yloxy)-2-cyclopropoxy-5-methylphenyl)amino)-7-methoxyquinazolin-6-yl)-2-fluoro-3-(1-methylpyrrolidin-2-yl)acrylamide]: the GI50 was at most 50 nM.
Turning to `COc1cc2ncnc(Nc3cc(C)c(Oc4ccn5ncnc5c4)cc3OC3CC3)c2cc1NC(=O)/C(F)=C/[C@H]1CCCN1C` [Example 107, (R,Z)—N-(4-((4-([1,2,4]triazolo[1,5-a]pyridin-7-yloxy)-2-cyclopropoxy-5-methylphenyl)amino)-7-methoxyquinazolin-6-yl)-2-fluoro-3-(1-methylpyrrolidin-2-yl)acrylamide], the GI50 was at most 50 nM.
Under `COc1cc2ncnc(Nc3ccc(Oc4ccn5ncnc5c4)cc3OC3COC3)c2cc1NC(=O)/C(F)=C\[C@H]1CCCN1C(=O)OC(C)(C)C` [Example 109, tert-butyl (R,E)-2-(3-((4-((4-([1,2,4]triazolo[1,5-a]pyridin-7-yloxy)-2-(oxetan-3-yloxy)phenyl)amino)-7-methoxyquinazolin-6-yl)amino)-2-fluoro-3-oxoprop-1-en-1-yl)pyrrolidine-1-carboxylate] stands above 500 nM; under `COc1cc2ncnc(Nc3cc(C)c(Oc4ccn5ncnc5c4)cc3OC)c2cc1NC(=O)/C(F)=C/[C@@H]1CCCN1C` [Example 112, (S,Z)—N-(4-((4-([1,2,4]triazolo[1,5-a]pyridin-7-yloxy)-2-methoxy-5-methylphenyl)amino)-7-methoxyquinazolin-6-yl)-2-fluoro-3-(1-methylpyrrolidin-2-yl)acrylamide], at most 50 nM.
As for `COc1cc(Oc2ccn3ncnc3c2)c(C)cc1Nc1ncnc2cc(N3CC(F)(F)C3)c(NC(=O)/C(F)=C/[C@H]3CCCN3C)cc12` [Example 114, (R,Z)—N-(4-((4-([1,2,4]triazolo[1,5-a]pyridin-7-yloxy)-2-methoxy-5-methylphenyl)amino)-7-(3,3-difluoroazetidin-1-yl)quinazolin-6-yl)-2-fluoro-3-(1-methylpyrrolidin-2-yl)acrylamide], the GI50 was at most 50 nM.
In the case of `CCOc1cc2ncnc(Nc3cc(C)c(Oc4ccn5ncnc5c4)cc3OC)c2cc1NC(=O)/C(F)=C/[C@H]1CCCN1C` [Example 120, (R,Z)—N-(4-((4-([1,2,4]triazolo[1,5-a]pyridin-7-yloxy)-2-methoxy-5-methylphenyl)amino)-7-ethoxyquinazolin-6-yl)-2-fluoro-3-(1-methylpyrrolidin-2-yl)acrylamide], the GI50 is at most 50 nM.
As for `COc1cc2ncnc(Nc3cc(C)c(Oc4ccc(N(C)C)cc4)cc3OC)c2cc1NC(=O)/C(F)=C\[C@H]1CCCN1C` [Example 123, (R,E)-N-(4-((4-(4-(dimethylamino)phenoxy)-2-methoxy-5-methylphenyl)amino)-7-methoxyquinazolin-6-yl)-2-fluoro-3-(1-methylpyrrolidin-2-yl)acrylamide], the GI50 is 50 to 100 nM.
Next, `COc1cc2ncnc(Nc3cc(C)c(Oc4ccc(C(=O)N(C)C)cc4)cc3OC)c2cc1NC(=O)/C(F)=C/[C@H]1CCCN1C` [Example 125, (R,Z)-4-(4-((6-(2-fluoro-3-(1-methylpyrrolidin-2-yl)acrylamido)-7-methoxyquinazolin-4-yl)amino)-5-methoxy-2-methylphenoxy)-N,N-dimethylbenzamide]: 50 to 100 nM; `COc1cc2ncnc(Nc3cc(C)c(Oc4ccc(C(=O)N(C)C)cc4)cc3OC)c2cc1NC(=O)/C(F)=C\[C@H]1CCCN1C` [Example 126, (R,E)-4-(4-((6-(2-fluoro-3-(1-methylpyrrolidin-2-yl)acrylamido)-7-methoxyquinazolin-4-yl)amino)-5-methoxy-2-methylphenoxy)-N,N-dimethylbenzamide]: 100 to 500 nM; `COc1cc2ncnc(Nc3cc(N(C)C)c(Oc4ccn5ncnc5c4)cc3OC)c2cc1NC(=O)/C(F)=C\[C@H]1CCCN1C` [Example 127, (R,E)-N-(4-((4-([1,2,4]triazolo[1,5-a]pyridin-7-yloxy)-5-(dimethylamino)-2-methoxyphenyl)amino)-7-methoxyquinazolin-6-yl)-2-fluoro-3-(1-methylpyrrolidin-2-yl)acrylamide]: 100 to 500 nM.
In the case of `COc1cc2ncnc(Nc3cc(C)c(Oc4ccn5ncnc5c4)cc3OC)c2cc1NC(=O)/C(F)=C/[C@H]1CCCCN1C` [Example 131, (R,Z)—N-(4-((4-([1,2,4]triazolo[1,5-a]pyridin-7-yloxy)-2-methoxy-5-methylphenyl)amino)-7-methoxyquinazolin-6-yl)-2-fluoro-3-(1-methylpiperidin-2-yl)acrylamide], the GI50 is at most 50 nM.
As for `CCOc1cc2ncc(C#N)c(Nc3cc(C)c(Oc4ccn5ncnc5c4)cc3OC)c2cc1NC(=O)/C(F)=C\[C@H]1CCCN1C` [Example 132, (R,E)-N-(4-((4-([1,2,4]triazolo[1,5-a]pyridin-7-yloxy)-2-methoxy-5-methylphenyl)amino)-3-cyano-7-ethoxyquinolin-6-yl)-2-fluoro-3-(1-methylpyrrolidin-2-yl)acrylamide], the GI50 lay within 100 to 500 nM.
